Measurements from patent US20040024024A1, “Aromatic sulfone hydroxamates and their use as protease inhibitors” (priority 2001, published 2004).

What was measured:
Type in all cases: biochemical
Human recombinant MMP-9 [1] = molecular target: T1, Human recombinant MMP-9 (Homo sapiens, UniProt P14780); experiment: In vitro MMP inhibition, IC50 determination (fluorogenic substrate I); details: value outside parenthesis
T1 construct: made in house; host or cells: MMP-9-transfected HT1080 cells (spent media)
In short: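 MMP-9 proenzyme purified from transfected HT1080 cell media, activated with APMA or trypsin. Compound dilutions in pH 7.5 Tris/NaCl/CaCl2 buffer with 0.05% polyoxyethylene 23 lauryl ether, incubated at room temperature with 4 μM MCA/Dpa substrate I. IC50 from fluorescence loss (ex 328, em 415 nm) versus inhibitor concentration.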

Human recombinant MMP-9 [2] = molecular target: T1, Human recombinant MMP-9; experiment: In vitro MMP inhibition, Ki determination (fluorogenic substrate II); details: value in parenthesis
Protocol: (§1) Several hydroxamates and salts thereof were analyzed in in vitro assays to determine their ability to inhibit the MMP cleavage of peptide substrates. Inhibition (Ki) and IC50 constants were calculated from the assayed hydroxamate-MMP interactions.
(§2) Human recombinant MMP-1, MMP-2, MMP-9, MMP-13, and MMP-14 were used in this assay. All enzymes were prepared in Assignee's laboratories following usual laboratory procedures. Protocols for the preparation and use of these enzymes are available in the scientific literature. See, e.g., Enzyme Nomenclature (Academic Press, San Diego, Calif., 1992) (and the citations therein). See also, Frije et al., J. Biol. Chem., 26(24), 16766-73 (1994).
The MMP-9 proenzyme was purified by gelatin Sepharose chromatography from spent media of MMP-9-transfected HT1080 cells provided by Dr. Howard Welgus of Washington University (St. Louis, Mo.).
(§3) All MMPs were activated using 4-aminophenylmercuric acetate (“APMA”, Sigma Chemical, St. Louis, Mo.) or trypsin. MMP-9 also was activated using human recombinant MMP-3 (purified in Assignee's laboratory following standard cloning and purification techniques).
(§4) Two fluorogenic, methoxycoumarin-containing polypeptide substrates were used in the MMP inhibition assays:
(§5) MCA-ArgProLeuGlyLeuDpaAlaArgGluArgNH2 (II)
(§6) Here, “Dpa” is 3-(2,4-dinitrophenyl)-L-2,3-diaminopropionyl group, and “MCA” is 7-methoxycoumarin-4-yl acetyl. Substrate (I) was purchased from Baychem (Redwood City, Calif.), and substrate II was prepared Assignee's laboratory. Substrate I was used in the IC50 determination assays, while substrate II was used in the Ki determination assays. In the absence of MMP inhibitory activity, either substrate is cleaved at the Gly-Leu peptide bond. This cleavage separates the highly fluorogenic peptide from the 2,4-dinitrophenyl quencher, thus resulting in increase of fluorescent intensity.
(§7) The stock solutions of the assayed hydroxamates (or salts thereof) were prepared in 1% dimethyl sulfoxide (DMSO). These stock solutions were diluted in Buffer A (100 mM Tris-HCl, 100 mM NaCl, 10 mM CaCl2, 0.05% polyoxyethylene 23 lauryl ether, pH 7.5) to obtain solutions with different hydroxamate concentrations, i.e., assay solutions with different concentrations of the assayed MMP inhibitory compound. The experiment controls contained the same amount of Buffer A/DMSO as the assayed sample, but contained no hydroxamate (or salt thereof).
(§8) The assays from which the Ki determinations were made were performed as follows. The assayed hydroxamate samples were incubated in separate wells of untreated white polystyrene plates (Nunc Nalgene International, Rochester, N.Y.), and analyzed on a Tecan SpectraFlour Plus plate reader. The excitation wavelength was 330 nm, and the emission wavelength—420 nm. All samples (assayed hydroxamates and controls) were incubated in separate plate wells at room temperature for 1 hr in the presence of 4 μM of MMP substrate (II). In the absence of MMP inhibitory activity, substrate II was cleaved at the Gly-Leu bond resulting in an increase of relative fluorescence. Inhibition was observed as a reduced rate of this increase in relative fluorescence. The various hydroxamates were analyzed using a single low enzyme concentration with a single substrate concentration fixed at or below the Km. This protocol is a modification of method by Knight et al., FEBS Lett., 296(3), 263-266 (1992). Apparent inhibitory constants were determined by non-linear regression of reaction velocity as a function of inhibitor and enzyme concentration using Morrison's equation, as described by Kuzmic, Anal. Biochem. 286, 45-50 (2000). Modifications were made in the non-linear regression method to allow a common control reaction rate and effective enzyme concentration to be shared between all dose-response relationships on a given assay plate. […]

Human recombinant MMP-13 = molecular target: T2, Human recombinant MMP-13 (Homo sapiens, UniProt P45452); experiment: In vitro MMP inhibition, IC50 determination (fluorogenic substrate I); details: value outside parenthesis
T2 construct: made in house; host or cells: baculovirus / insect cells
In short: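 Fluorescence at 415 nm (excitation 328 nm) reports Gly-Leu cleavage of 4 μM quenched methoxycoumarin peptide substrate I. Human recombinant MMP-13, activated by trypsin or APMA, was incubated at room temperature with varied inhibitor concentrations in pH 7.5 Tris/NaCl/CaCl2 buffer; IC50 derived from reduced fluorescence.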

Human recombinant MMP-1 = molecular target: T3, Human recombinant MMP-1 (Homo sapiens, UniProt P03956); experiment: In vitro MMP inhibition, Ki determination (fluorogenic substrate II); details: value in parenthesis
T3 construct: made in house; host or cells: MMP-1-transfected HT-1080 cells (spent media)
T3 sequence (P03956 100-469): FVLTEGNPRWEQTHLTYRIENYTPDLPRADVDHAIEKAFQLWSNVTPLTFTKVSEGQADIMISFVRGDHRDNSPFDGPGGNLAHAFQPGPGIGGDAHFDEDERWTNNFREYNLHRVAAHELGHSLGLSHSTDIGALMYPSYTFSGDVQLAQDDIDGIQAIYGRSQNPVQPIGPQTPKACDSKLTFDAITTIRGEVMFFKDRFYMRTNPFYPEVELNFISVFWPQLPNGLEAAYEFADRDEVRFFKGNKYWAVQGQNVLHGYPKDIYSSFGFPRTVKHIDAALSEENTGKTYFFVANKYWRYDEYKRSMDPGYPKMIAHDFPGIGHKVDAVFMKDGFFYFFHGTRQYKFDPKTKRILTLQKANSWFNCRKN
Protocol: as §1, §2
The MMP-1 proenzyme was purified from the spent media of MMP-1-transfected HT-1080 cells provided by Dr. Harold Welgus of Washington University (St. Louis, Mo.). The protein was purified on a zinc chelating column.
as §3, §4, §5, §6, §7, §8

T1 sequence (P14780 107-707 limits assumed): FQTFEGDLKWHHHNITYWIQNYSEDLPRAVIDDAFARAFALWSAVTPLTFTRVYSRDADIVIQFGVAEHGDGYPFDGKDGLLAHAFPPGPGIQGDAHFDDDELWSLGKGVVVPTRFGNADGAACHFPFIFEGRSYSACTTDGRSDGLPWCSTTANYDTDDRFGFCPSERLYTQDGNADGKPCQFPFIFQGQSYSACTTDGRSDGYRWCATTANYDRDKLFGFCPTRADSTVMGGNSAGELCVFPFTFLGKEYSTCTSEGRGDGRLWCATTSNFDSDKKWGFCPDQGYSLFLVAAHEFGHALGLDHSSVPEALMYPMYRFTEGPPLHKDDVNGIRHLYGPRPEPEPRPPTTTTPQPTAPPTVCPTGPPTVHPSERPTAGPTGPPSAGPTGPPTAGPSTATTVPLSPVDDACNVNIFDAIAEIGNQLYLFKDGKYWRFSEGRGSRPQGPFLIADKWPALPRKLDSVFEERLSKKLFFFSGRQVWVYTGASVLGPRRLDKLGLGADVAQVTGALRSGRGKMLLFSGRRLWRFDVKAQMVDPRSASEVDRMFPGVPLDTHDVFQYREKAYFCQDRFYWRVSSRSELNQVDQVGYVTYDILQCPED

SMILES | IC50 (Human recombinant MMP-9 [1]) [nM] | Ki (Human recombinant MMP-9 [2]) [nM] | IC50 (Human recombinant MMP-13) [nM] | Ki (Human recombinant MMP-1) [µM]
O=C(NO)C1(S(=O)(=O)c2ccc(OCCCc3cccc(-c4ccc(F)cc4)c3)cc2)CCN(C2CC2)CC1 [Example 139] | 4510 | 1390 | 0.4 | > 10
COCCN1CCC(C(=O)NO)(S(=O)(=O)c2ccc(OCCCc3cccc(-c4ccc(F)cc4)c3)cc2)CC1 [Example 140] | 1690 | 754 | 0.5 | > 10
O=C(NO)C1(S(=O)(=O)c2ccc(OCCCc3cccc(-c4cccnc4)c3)cc2)CCOCC1 [Example 150] | 530 | 125 | 0.6 | > 10
COCCN1CCC(C(=O)NO)(S(=O)(=O)c2ccc(OCCCc3nc(-c4ccccc4OC(F)(F)F)no3)cc2)CC1 [Example 152] | 72.3 | 44.5 | 11.8 | > 10
O=C(NO)C1(S(=O)(=O)c2ccc(OCCCc3cccc(Br)c3)cc2)CCOCC1 [Example 154] | 111 | 151 | 0.8 | > 10
CCc1ccccc1-c1noc(CCCOc2ccc(S(=O)(=O)C3(C(=O)NO)CCN(CCOC)CC3)cc2)n1 [Example 155] | 1170 | 172 | 9.7 | > 10
O=C(NO)C1(S(=O)(=O)c2ccc(OCCOc3cccc(-c4ccccc4)c3)cc2)CCOCC1 [Example 157] | 2470 | 1390 | 3.5 | > 10
O=C(NO)C1(S(=O)(=O)c2ccc(OCCCc3cccc(-c4cccc(F)c4)c3)cc2)CCOCC1 [Example 161] | 2630 | 1730 | 2.6 | > 10
O=C(NO)C1(S(=O)(=O)c2ccc(OCCCc3cccc(-c4ccccc4F)c3)cc2)CCOCC1 [Example 163] | 2880 | 2500 | 2.5 | > 10
COCCN1CCC(C(=O)NO)(S(=O)(=O)c2ccc(OCCCc3nc(-c4ccc(CC(C)C)cc4)no3)cc2)CC1 [Example 175] | 7300 | 1390 | 1.4 | > 10
COCCN1CCC(C(=O)NO)(S(=O)(=O)c2ccc(OCCCc3nnc(-c4ccccc4C(F)(F)F)o3)cc2)CC1 [Example 178] | 1170 | 306 | 7.8 | > 10
O=C(CCCOc1ccc(S(=O)(=O)C2(C(=O)NO)CCOCC2)cc1)Nc1cccc(OC(F)(F)F)c1 [Example 181] | 26.4 | 40.5 | 0.3 | 1.85
CC(C)c1cccc(NC(=O)CCCOc2ccc(S(=O)(=O)C3(C(=O)NO)CCOCC3)cc2)c1 [Example 182] | 62.1 | 85.4 | 0.5 | 6.54
COCCN1CCC(C(=O)NO)(S(=O)(=O)c2ccc(OCCCc3nc(-c4ccc(OC(F)(F)F)cc4)no3)cc2)CC1 [Example 190] | 1740 | 669 | 0.5 | > 10
O=C(NO)C1(S(=O)(=O)c2ccc(OCCCc3ccnc(-c4ccccc4)c3)cc2)CCOCC1 [Example 197] | 432 | 334 | 0.5 | > 10
O=C(CCCc1ccc(S(=O)(=O)C2(C(=O)NO)CCOCC2)cc1)c1cccc(-c2ccccc2)c1 [Example 219] | 77.7 | 59.5 | 0.4 | 5.6
O=C(CCCOc1ccc(S(=O)(=O)C2(C(=O)NO)CCOCC2)cc1)Nc1ccc(OC(F)(F)F)cc1 [Example 228] | 180 | 247 | 0.2 | 3.94
Cc1cc(OC(F)(F)F)ccc1NC(=O)CCCOc1ccc(S(=O)(=O)C2(C(=O)NO)CCOCC2)cc1 [Example 229] | 294 | 281 | 1.7 | 0.955
COc1ccc(/C(C#N)=C/CCCOc2ccc(S(=O)(=O)C3(C(=O)NO)CCN(C4CC4)CC3)cc2)cc1 [Example 233] | 832 | 509 | 0.1 | > 10
CN(C(=O)CCCOc1ccc(S(=O)(=O)C2(C(=O)NO)CCOCC2)cc1)c1ccc(OC(F)(F)F)cc1 [Example 249] | 3630 | 1490 | 5.09 | > 10
O=C(CCCOc1ccc(S(=O)(=O)C2(C(=O)NO)CCOCC2)cc1)Nc1ccc(OC(F)(F)F)cc1 [Example 250] | 22.5 | 12.5 | 0.3 | 1.44
Cc1cc(NC(=O)CCCOc2ccc(S(=O)(=O)C3(C(=O)NO)CCOCC3)cc2)ccc1OC(C)C [Example 290] | > 10000 | > 10000 | 1.1 | > 10
